What all share (test): NCI-60 cell line screen, 48 h
For test [1], the system named is ACHN.
Test [2] has as its system COLO 205.
Test [3] deals with EKVX.
Test [4] has as its system HCT-116.
Test [5] deals with HL-60.
Test [6] concerns HOP-62.
The subject of test [7] is Hs-578T.
Test [8] relates to Malme-3M.
In test [9] the test system is NCI-H226.
In test [10] the test system is NCI-H23.
The test system of test [11] is NCI-H460.
Test [12] relates to NCI/ADR-RES.
The subject of test [13] is OVCAR-4.
Test [14] concerns PC-3.
The test system of test [15] is SR.
Test [16] relates to SW-620.
Test [17] relates to UACC-62.
The subject of test [18] is HOP-92.

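Grown in 96-well plates, cells were treated for 48 hours with each compound at five concentrations. Insufficient inhibition: endpoint recorded as highest concentration tested. GI50 = concentration required for 50% inhibition of growth.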 Activity calls are given as the source filed them. Cut-off read from the data, not from the text of the source: active = GI50 up to about 1.1 µM and inactive = higher.

For the compound `CSc1nc(C)cc(N(C)c2ccccc2)n1`, the GI50 in test [1] was 58.6 µM (inactive); in [2], 34.8 µM (inactive); in test [3], 37.8 µM (inactive); in [4], 22.9 µM (inactive); in [5], 32.8 µM (inactive); in [6] it was 45.2 µM (inactive). For the same compound, the GI50 in test [7] is 32.4 µM (inactive); in test [8], 63.7 µM (inactive); in test [9] it was 34.5 µM (inactive); in test [10], 27.9 µM (inactive); in test [11], 40.7 µM (inactive); in [12], 25.2 µM (inactive). The GI50 is > 100 µM (inactive) in [13]; 55.5 µM (inactive) in test [14]; 10.7 µM (inactive) in test [15]; 54.5 µM (inactive) in test [16]; 35.3 µM (inactive) in test [17].
As for `COC1=CCC2=C(CCN(C(=O)C3CC3)C2Cc2ccc(OC)c(O)c2)C1` (configuration not stated), the GI50 was > 100 µM (inactive) in [1]; 51.5 µM (inactive) in test [2]; 47.1 µM (inactive) in test [3]; 36.6 µM (inactive) in [4]; 26.7 µM (inactive) in test [5]; 61.8 µM (inactive) in test [6]. Moreover, the GI50 in test [18] was 27.9 µM (inactive); in test [7], 69.2 µM (inactive); in test [8] it was 88.9 µM (inactive); in test [9], 89.3 µM (inactive); in [10], 26.7 µM (inactive); in test [11], 42 µM (inactive). Further, the GI50 was 19 µM (inactive) in [12]; 42.5 µM (inactive) in test [13]; 35.6 µM (inactive) in test [14]; 4.8 µM (inactive) in test [15]; 29 µM (inactive) in test [16]; 48.8 µM (inactive) in [17].
`CC(=O)c1c(-c2ccc(Cl)cc2)c(C#N)c(=S)n(C2OC(CO)C(O)C(O)C2O)c1C` (configuration not stated): the GI50 in test [1] was 42.3 µM (inactive); in test [2], 32.5 µM (inactive); in test [4] it was 47 µM (inactive); in [5], 26.9 µM (inactive); in test [6], 65 µM (inactive); in test [18], 13.1 µM (inactive). The GI50 was 67 µM (inactive) in test [8]; 58.3 µM (inactive) in [9]; 45.4 µM (inactive) in test [10]; 37 µM (inactive) in test [11]; > 100 µM (inactive) in [12]; 38.5 µM (inactive) in test [13]. Further, the GI50 in [14] was 31.5 µM (inactive); in test [15] it was 30.3 µM (inactive); in test [17], 22.3 µM (inactive).
With `COC1/C=C/C(C)C(C(C)C(OC)C(C)CCC(=O)C(C)C(CC(=O)O)OC)OC(=O)/C=C/C=C(\C)CC(OC)CC2=CC(=O)O[C@H](C2)C(C)C(OC)CC(OC)/C=C/C(C)C(OC)C1` (some centres not stated), the GI50 is 0.562 µM (active) in test [1]; 0.0977 µM (active) in test [2]; 0.396 µM (active) in [3]; 0.118 µM (active) in [5]; 0.45 µM (active) in test [6]; 0.124 µM (active) in test [18]. Moreover, the GI50 in test [7] was 0.0759 µM (active); in test [9], 0.543 µM (active); in test [10] it was 0.879 µM (active); in [11] it was 0.195 µM (active); in test [12] it was 2.66 µM (inactive); in [13], 0.275 µM (active). Also, the GI50 is 0.38 µM (active) in test [14], 0.385 µM (active) in test [15], 0.348 µM (active) in test [16] and 0.315 µM (active) in test [17].
Take `C=CC(C)(C)C(=C)C(=O)Nc1ccccc1I`: the GI50 in [1] was > 100 µM (inactive); in test [2] it was > 100 µM (inactive); in [3], 83.9 µM (inactive); in [4] it was 81.8 µM (inactive); in test [6], > 100 µM (inactive); in test [18], > 100 µM (inactive). Further, the GI50 in [7], in test [9], in [10], in [11], in test [12] and in test [13] was > 100 µM (inactive) throughout. Further, the GI50 in test [14] is > 100 µM (inactive); in test [15], 86.1 µM (inactive); in test [16], > 100 µM (inactive); in [17] it was > 100 µM (inactive).

The record behind these values is ChEMBL document CHEMBL1201862, “PubChem BioAssay data set” (2004).
